The values that follow come from patent US20090143440A1, “Pyrazoles Useful in the Treatment of Inflammation” (BIOLIPOX AB, priority 2005, published 2009).

In this test the target is T1, purified human 15-lipoxygenase (Homo sapiens, UniProt P16050).
T1 sequence (P16050 1-662): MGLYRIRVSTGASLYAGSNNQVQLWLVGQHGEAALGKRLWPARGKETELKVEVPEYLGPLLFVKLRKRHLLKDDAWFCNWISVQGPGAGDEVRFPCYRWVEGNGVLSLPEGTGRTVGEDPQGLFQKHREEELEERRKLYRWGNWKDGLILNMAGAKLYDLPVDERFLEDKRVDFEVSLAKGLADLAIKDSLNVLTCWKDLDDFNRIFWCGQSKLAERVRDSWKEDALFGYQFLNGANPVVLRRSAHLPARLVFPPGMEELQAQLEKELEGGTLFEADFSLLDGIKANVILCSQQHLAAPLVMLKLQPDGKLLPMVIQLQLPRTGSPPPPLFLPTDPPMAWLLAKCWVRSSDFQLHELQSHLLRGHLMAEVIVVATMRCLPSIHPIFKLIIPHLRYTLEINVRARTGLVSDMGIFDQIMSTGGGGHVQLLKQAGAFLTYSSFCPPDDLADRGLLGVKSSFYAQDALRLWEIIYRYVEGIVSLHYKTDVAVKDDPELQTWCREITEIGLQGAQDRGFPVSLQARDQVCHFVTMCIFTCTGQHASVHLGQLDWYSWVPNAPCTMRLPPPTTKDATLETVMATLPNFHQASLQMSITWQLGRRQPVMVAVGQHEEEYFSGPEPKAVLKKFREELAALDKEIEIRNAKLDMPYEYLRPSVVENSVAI
In words: 15-lipoxygenase inhibition assay (arachidonic acid oxidation, HPLC readout). It is filed as biochemical. As to conditions: arachidonic acid substrate, room temperature, PBS pH 7.4. The method, then: The assay employed takes advantage of the ability of lipoxygenases to oxidize polyunsaturated fatty acids, containing a 1,4-cis-pentadiene configuration, to their corresponding hydroperoxy or hydroxyl derivatives. In this particular assay, the lipoxygenase was a purified human 15-lipoxygenase and the fatty acid was arachidonic acid. The assay is performed at room temperature (20-22° C.) and the following are added to each well in a 96-well microtiter plate:
a) 35 μL phosphate buffered saline (PBS) (pH 7.4); b) inhibitor (i.e. compound) or vehicle (0.5 μl DMSO); c) 10 μL of a 10× concentrated solution of 15-lipoxygenase in PBS. […] The plate is then incubated for 10 minutes at room temperature; e) the enzymatic reaction is terminated by the addition of 100 μl methanol; and f) the amount of 15-hydroperoxy-eicosatetraenoic acid or 15-hydroxy-eicosatetraenoic acid is measured by reverse phase HPLC.
For the molecule `COc1ccc(NC(=O)c2cc(Cl)[nH]n2)nc1` [Example 29, 5-Chloro-N-(5-methoxypyridin-2-yl)pyrazole-3-carboxamide], half-maximal inhibition (IC50) required 122 nM.
Turning to `O=C(Nc1ccc(C(F)(F)F)cn1)c1cc(Cl)[nH]n1` [Example 5, 5-Chloro-N-(5-(trifluoromethyl)pyridin-2-yl)pyrazole-3-carboxamide], the IC50 – broadly, the concentration needed to halve the response being measured – came to 300 nM.
In turn, `O=C(Nc1ccc([N+](=O)[O-])cn1)c1cc(Cl)[nH]n1` [Example 14, 5-Chloro-N-(5-nitropyridin-2-yl)pyrazole-3-carboxamide] registered an IC50 of 248 nM.
`O=C(Nc1ccc(F)cn1)c1cc(C(F)F)[nH]n1` [Example 13, 5-(Difluoromethyl)-N-(5-fluoropyridin-2-yl)pyrazole-3-carboxamide] yielded an IC50 of 393 nM.
Consider `Cc1ccnc(NC(=O)c2cc[nH]n2)c1` [Example 44], for which the IC50 turned out to be 346 nM.
`Cc1nc(NC(=O)c2cc(Cl)[nH]n2)ccc1Br` [Example 6, N-(5-bromo-6-methylpyridin-2-yl)-5-chloropyrazole-3-carboxamide] returned an IC50 of 320 nM. The IC50 values of the last two molecules are within 1.5-fold of each other.
Turning to `O=C(Nc1ccc(F)cn1)c1n[nH]c(C(F)(F)F)c1Cl` [Example 11, 4-Chloro-N-(5-fluoropyridin-2-yl)-5-(trifluoromethyl)pyrazole-3-carboxamide], half-maximal inhibition (IC50) required 310 nM. This IC50 and that of the molecule before are within 1.5-fold of each other.
